Here are results for 13 compounds from US7981903B2, “2-[2-{phenylamino}-1H-pyrrolo[2,3-D]pyrimidin-4-yl)amino] benzamide derivatives as IGF-1R inhibitors for the treatment of cancer” (GlaxoSmithKline LLC, priority 2007, dated 2011).

One assay concerns the target ALK (Homo sapiens, UniProt Q9UM73). Description: ALK enzyme assay (HTRF). It is filed as biochemical. The note with it: 0.25 nM ALK, 15.0 μM ATP, values given as pIC50 category. In short, it runs like this:
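Final compound range 0.00017 to 10 μM (twelve 1:3 dilutions). Kinase reaction with ATP and biotinylated synthetic peptide runs 120 min at 20° C, stopped with EDTA; phosphotyrosine detected by HTRF after 60 min. Inhibition referenced to DMSO (1%) and EDTA (0.1 M) controls, curve-fitted.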

The next assay concerns the target T1, human IR (hIR) (Homo sapiens, UniProt P06213).
T1 construct: containing amino acid residues 979-1382 of human IR; made in house; host or cells: Sf9 cells (baculovirus), same process as hIGF1R
As to the kind of experiment: TR-FRET kinase assay of purified hIR. Format: biochemical. The note with it: activated hIR 0.5 nM, 10 μM ATP, values given as pIC50 category.

Assay [1] addresses T2, NIH-3T3 cells overexpressing human IR (Homo sapiens, UniProt P06213).
T2 construct: expressed in transfected cells; host or cells: NIH-3T3 (mouse fibroblasts)
Description: IR cellular autophosphorylation (DELFIA). Format: cell-based. To be noted: 2 h compound, insulin 3 ug/ml for 15 minutes, IC50 category. In short, it runs like this:
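Receptor autophosphorylation measured by DELFIA, capturing IGF-1R or IRβ and detecting with europium anti-pTyr, reported as percent of IGF-1- or insulin-stimulated signal. Compounds (30 uM to 1.5 nM) added 2 h before ligand, then 15 min stimulation (IGF-1 30 ng/ml or insulin 3 ug/ml).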

ALK, sequence (Q9UM73 19-1620): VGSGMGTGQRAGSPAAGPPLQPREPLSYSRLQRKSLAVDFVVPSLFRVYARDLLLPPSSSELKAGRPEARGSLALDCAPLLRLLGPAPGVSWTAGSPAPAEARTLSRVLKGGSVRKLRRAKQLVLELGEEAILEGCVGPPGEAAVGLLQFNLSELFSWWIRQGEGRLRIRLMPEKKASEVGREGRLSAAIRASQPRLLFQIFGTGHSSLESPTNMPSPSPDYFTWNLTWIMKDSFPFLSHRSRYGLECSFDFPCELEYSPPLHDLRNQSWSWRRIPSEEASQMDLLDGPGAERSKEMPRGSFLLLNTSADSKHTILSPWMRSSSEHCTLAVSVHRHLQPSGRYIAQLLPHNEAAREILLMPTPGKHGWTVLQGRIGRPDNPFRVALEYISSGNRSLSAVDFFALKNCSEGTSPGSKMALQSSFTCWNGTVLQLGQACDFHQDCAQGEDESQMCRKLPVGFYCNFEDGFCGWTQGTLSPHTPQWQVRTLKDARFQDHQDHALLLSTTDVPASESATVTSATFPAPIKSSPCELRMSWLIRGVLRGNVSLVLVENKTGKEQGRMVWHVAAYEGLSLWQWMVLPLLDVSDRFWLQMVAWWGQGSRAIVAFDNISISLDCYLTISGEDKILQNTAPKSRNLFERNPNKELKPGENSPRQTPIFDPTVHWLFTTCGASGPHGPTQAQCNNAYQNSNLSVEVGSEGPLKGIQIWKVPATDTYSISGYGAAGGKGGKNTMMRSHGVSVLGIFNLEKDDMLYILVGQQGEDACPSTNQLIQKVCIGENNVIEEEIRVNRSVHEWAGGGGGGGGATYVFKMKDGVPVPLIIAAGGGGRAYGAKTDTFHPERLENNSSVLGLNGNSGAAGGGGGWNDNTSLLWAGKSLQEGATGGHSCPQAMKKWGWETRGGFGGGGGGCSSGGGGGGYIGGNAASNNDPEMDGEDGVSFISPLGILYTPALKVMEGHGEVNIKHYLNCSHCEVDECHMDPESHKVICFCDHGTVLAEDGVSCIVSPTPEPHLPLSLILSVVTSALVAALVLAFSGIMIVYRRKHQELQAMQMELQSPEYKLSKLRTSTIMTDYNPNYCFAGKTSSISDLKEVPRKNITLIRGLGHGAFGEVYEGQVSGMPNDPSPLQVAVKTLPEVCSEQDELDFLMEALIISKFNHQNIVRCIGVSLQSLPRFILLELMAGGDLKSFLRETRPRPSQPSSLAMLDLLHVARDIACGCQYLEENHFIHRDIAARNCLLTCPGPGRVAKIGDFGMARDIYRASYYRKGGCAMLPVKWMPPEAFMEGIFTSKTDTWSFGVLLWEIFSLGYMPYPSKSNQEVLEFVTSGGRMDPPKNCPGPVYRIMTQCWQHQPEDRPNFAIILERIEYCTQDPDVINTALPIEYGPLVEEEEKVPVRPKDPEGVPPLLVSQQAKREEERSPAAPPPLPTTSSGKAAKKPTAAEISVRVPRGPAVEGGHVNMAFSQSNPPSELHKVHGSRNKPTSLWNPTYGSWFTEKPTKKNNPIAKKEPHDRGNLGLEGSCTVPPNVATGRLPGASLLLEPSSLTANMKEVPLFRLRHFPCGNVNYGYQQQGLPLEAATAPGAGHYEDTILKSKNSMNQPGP
T2 sequence (P06213 28-1382): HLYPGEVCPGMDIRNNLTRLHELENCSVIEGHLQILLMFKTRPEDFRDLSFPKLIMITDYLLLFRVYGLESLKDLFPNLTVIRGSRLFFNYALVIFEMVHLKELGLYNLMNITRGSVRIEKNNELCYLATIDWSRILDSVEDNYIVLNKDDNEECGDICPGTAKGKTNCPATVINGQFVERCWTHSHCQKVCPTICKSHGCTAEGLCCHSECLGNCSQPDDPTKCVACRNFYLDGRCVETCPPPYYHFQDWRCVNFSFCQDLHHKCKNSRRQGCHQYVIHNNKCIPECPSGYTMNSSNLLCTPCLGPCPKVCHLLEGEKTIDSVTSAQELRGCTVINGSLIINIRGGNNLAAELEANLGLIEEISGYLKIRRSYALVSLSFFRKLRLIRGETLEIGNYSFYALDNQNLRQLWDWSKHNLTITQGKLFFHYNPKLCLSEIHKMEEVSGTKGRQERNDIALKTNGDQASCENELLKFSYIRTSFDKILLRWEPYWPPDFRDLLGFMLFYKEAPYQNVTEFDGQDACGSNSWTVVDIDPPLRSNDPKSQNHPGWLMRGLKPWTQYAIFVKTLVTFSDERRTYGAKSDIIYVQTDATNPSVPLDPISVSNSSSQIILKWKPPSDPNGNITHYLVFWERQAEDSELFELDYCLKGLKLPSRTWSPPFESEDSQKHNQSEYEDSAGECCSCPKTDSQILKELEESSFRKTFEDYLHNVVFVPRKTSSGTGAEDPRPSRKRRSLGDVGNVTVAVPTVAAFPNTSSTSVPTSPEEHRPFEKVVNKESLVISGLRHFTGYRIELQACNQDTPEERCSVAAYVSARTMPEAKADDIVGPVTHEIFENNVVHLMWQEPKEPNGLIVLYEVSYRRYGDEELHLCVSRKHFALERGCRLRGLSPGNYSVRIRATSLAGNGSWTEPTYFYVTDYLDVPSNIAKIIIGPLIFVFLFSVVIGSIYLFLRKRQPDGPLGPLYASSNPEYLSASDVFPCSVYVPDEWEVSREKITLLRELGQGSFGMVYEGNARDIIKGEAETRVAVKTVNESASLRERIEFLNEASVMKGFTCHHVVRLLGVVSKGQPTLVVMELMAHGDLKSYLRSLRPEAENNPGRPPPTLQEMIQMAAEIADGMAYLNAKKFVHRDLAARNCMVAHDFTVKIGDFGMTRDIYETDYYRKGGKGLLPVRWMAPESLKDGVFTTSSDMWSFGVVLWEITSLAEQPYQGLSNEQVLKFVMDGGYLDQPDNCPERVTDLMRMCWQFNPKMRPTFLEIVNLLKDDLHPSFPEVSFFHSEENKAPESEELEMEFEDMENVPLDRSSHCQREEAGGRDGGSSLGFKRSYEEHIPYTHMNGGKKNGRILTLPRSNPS
T1 sequence (P06213 979-1382): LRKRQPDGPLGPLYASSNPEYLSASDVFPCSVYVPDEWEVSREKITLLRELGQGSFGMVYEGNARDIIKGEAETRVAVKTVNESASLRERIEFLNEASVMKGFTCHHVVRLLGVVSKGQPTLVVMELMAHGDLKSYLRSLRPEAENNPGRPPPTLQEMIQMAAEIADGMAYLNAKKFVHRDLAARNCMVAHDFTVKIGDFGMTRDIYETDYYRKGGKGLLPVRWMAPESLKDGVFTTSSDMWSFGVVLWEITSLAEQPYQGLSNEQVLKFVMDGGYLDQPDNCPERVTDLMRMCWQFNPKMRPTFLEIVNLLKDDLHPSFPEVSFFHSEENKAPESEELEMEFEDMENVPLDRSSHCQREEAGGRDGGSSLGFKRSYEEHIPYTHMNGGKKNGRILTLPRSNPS

In the case of `CCN(C)CC(=O)N1CCc2cc(OC)c(Nc3nc(Nc4cccc(F)c4C(N)=O)c4cc[nH]c4n3)cc21` [Example 166, 2-[(2-{[1-(N-ethyl-N-methylglycyl)-5-(methyloxy)-2,3-dihydro-1H-indol-6-yl]amino}-1H-pyrrolo[2,3-d]pyrimidin-4-yl)amino]-6-fluorobenzamide], the results for the IC50 (at ALK; on human IR (hIR); in assay [1]) were 1.26 to 3.98 nM, 1.26 to 3.98 nM and under 100 nM, respectively.
`COc1cc(N2CCN(C(C)C)CC2)c(OC)cc1Nc1nc(Nc2cc(F)ccc2C(N)=O)c2cc[nH]c2n1` [Example 82, 4-fluoro-2-[(2-{[4-[4-(1-methylethyl)-1-piperazinyl]-2,5-bis(methyloxy)phenyl]amino}-1H-pyrrolo[2,3-d]pyrimidin-4-yl)amino]benzamide]: the 50% inhibitory concentration (IC50) against ALK was 1.26 to 3.98 nM; against human IR (hIR), 1.26 to 3.98 nM; in assay [1] it was 100 to 500 nM.
As for `CNCC(=O)N1CCc2cc(OC)c(Nc3nc(Nc4cccc(F)c4C(N)=O)c4cc[nH]c4n3)cc21` [Example 142, 2-fluoro-6-[(2-{[1-(N-methylglycyl)-5-(methyloxy)-2,3-dihydro-1H-indol-6-yl]amino}-1H-pyrrolo[2,3-d]pyrimidin-4-yl)amino]benzamide], the IC50 at ALK is 1.26 to 3.98 nM; against human IR (hIR), 1.26 to 3.98 nM; in assay [1] it was 100 to 500 nM.
Turning to `COc1cc(N2CCC(N3CCCC(F)(F)C3)CC2)ccc1Nc1nc(Nc2cc(F)ccc2C(N)=O)c2cc[nH]c2n1` [Example 77, 2-[(2-{[4-(3,3-difluoro-1,4′-bipiperidin-1′-yl)-2-(methyloxy)phenyl]amino}-1H-pyrrolo[2,3-d]pyrimidin-4-yl)amino]-4-fluorobenzamide], the IC50 against ALK was 1.26 to 3.98 nM; at human IR (hIR), 0.251 to 1 nM; in assay [1], under 100 nM.
With `COc1cc2c(cc1Nc1nc(Nc3cccc(F)c3C(=O)NC(C)C)c3cc[nH]c3n1)N(C(=O)CN(C)C)CC2` [Example 158, 2-[(2-{[1-(N,N-dimethylglycyl)-5-(methyloxy)-2,3-dihydro-1H-indol-6-yl]amino}-1H-pyrrolo[2,3-d]pyrimidin-4-yl)amino]-6-fluoro-N-(1-methylethyl)benzamide], the IC50 on ALK is 0.251 to 1 nM; against human IR (hIR), 1.26 to 3.98 nM; in assay [1] it was over 500 nM.
The matching figures for `CNC(=O)c1c(F)cccc1Nc1nc(Nc2cc3c(cc2OC)CCN3C(=O)CN2CCCC2)nc2[nH]ccc12` [Example 139, 2-fluoro-N-methyl-6-[(2-{[5-(methyloxy)-1-(1-pyrrolidinylacetyl)-2,3-dihydro-1H-indol-6-yl]amino}-1H-pyrrolo[2,3-d]pyrimidin-4-yl)amino]benzamide]: 0.251 to 1 nM, 1.26 to 3.98 nM and 100 to 500 nM.
The matching figures for `COc1cc2c(cc1Nc1nc(Nc3cc(F)cc(F)c3C(=O)NC(C)C)c3cc[nH]c3n1)N(C(=O)CN(C)C)CC2` [Example 153, 2-[(2-{[1-(N,N-dimethylglycyl)-5-(methyloxy)-2,3-dihydro-1H-indol-6-yl]amino}-1H-pyrrolo[2,3-d]pyrimidin-4-yl)amino]-4,6-difluoro-N-(1-methylethyl)benzamide]: 0.251 to 1 nM, 1.26 to 3.98 nM and over 500 nM.
`CCCN1CCC(c2ccc(Nc3nc(Nc4cc(F)c(F)cc4C(N)=O)c4cc[nH]c4n3)c(OC)c2)CC1` [Example 98, 4,5-difluoro-2-[(2-{[2-(methyloxy)-4-(1-propyl-4-piperidinyl)phenyl]amino}-1H-pyrrolo[2,3-d]pyrimidin-4-yl)amino]benzamide]: the IC50 against ALK was 0.251 to 1 nM; at human IR (hIR), 0.251 to 1 nM; in assay [1] it was under 100 nM.
As to `COc1cc(N2CCC[C@H](O)C2)ccc1Nc1nc(Nc2cc(F)ccc2C(N)=O)c2cc[nH]c2n1` [Example 74, 4-fluoro-2-[(2-{[4-[(3S)-3-hydroxy-1-piperidinyl]-2-(methyloxy)phenyl]amino}-1H-pyrrolo[2,3-d]pyrimidin-4-yl)amino]benzamide], the half-maximal inhibitory concentration (IC50) was 1.26 to 3.98 nM against ALK, 0.251 to 1 nM on human IR (hIR) and 100 to 500 nM in assay [1].
Turning to `COc1cc(N2CCC(N3CC[C@H](F)C3)CC2)ccc1Nc1nc(Nc2cc(F)ccc2C(N)=O)c2cc[nH]c2n1` [Example 75, 4-fluoro-2-[(2-{[4-{4-[(3S)-3-fluoro-1-pyrrolidinyl]-1-piperidinyl}-2-(methyloxy)phenyl]amino}-1H-pyrrolo[2,3-d]pyrimidin-4-yl)amino]benzamide], the IC50 is 1.26 to 3.98 nM on ALK, 0.251 to 1 nM on human IR (hIR) and under 100 nM in assay [1].
As to `COc1cc(N2CCOC[C@@H]2C)ccc1Nc1nc(Nc2cc(F)c(F)cc2C(N)=O)c2cc[nH]c2n1` [Example 105, 4,5-difluoro-2-[(2-{[4-[(3S)-3-methyl-4-morpholinyl]-2-(methyloxy)phenyl]amino}-1H-pyrrolo[2,3-d]pyrimidin-4-yl)amino]benzamide], the IC50 was 1.26 to 3.98 nM against ALK, 0.251 to 1 nM on human IR (hIR) and under 100 nM in assay [1].
For `COc1cc2c(cc1Nc1nc(Nc3ccc(F)c(F)c3C(N)=O)c3cc[nH]c3n1)N(C(=O)CN(C)C)CCC2` [Example 162, 6-[(2-{[1-(N,N-dimethylglycyl)-6-(methyloxy)-1,2,3,4-tetrahydro-7-quinolinyl]amino}-1H-pyrrolo[2,3-d]pyrimidin-4-yl)amino]-2,3-difluorobenzamide], the 50% inhibitory concentration (IC50) was 1.26 to 3.98 nM at ALK, 0.251 to 1 nM against human IR (hIR) and under 100 nM in assay [1].
In the same order, the values of `CNC(=O)c1c(F)cccc1Nc1nc(Nc2cc3c(cc2OC)CCCN3C(=O)CN2CCCCC2)nc2[nH]ccc12` [Example 217, 2-fluoro-N-methyl-6-[(2-{[6-(methyloxy)-1-(1-piperidinylacetyl)-1,2,3,4-tetrahydro-7-quinolinyl]amino}-1H-pyrrolo[2,3-d]pyrimidin-4-yl)amino]benzamide] are 5.01 to 200 nM, 1.26 to 3.98 nM and under 100 nM.
